What was measured:
[1] = system: corn line D haploid callus; assay: Chromosome doubling of haploid callus with colchicine; ploidy of regenerated plants by flow cytometry; format: cell-based; conditions: 3 days; for Diploid plants / Haploid plants / Tetraploid plants: 0.025% colchicine
From the text: When a sufficient amount of transgenic callus has grown (approximately 0.25 g), the haploid callus can be doubled to produce dihaploid callus. The callus can be transferred to a 100×20 mm petri plate that contains a structure for supporting callus in a liquid medium such as three filter papers or 2 pieces of 100% acrylic felt. Those of skill in the art are aware of the numerous modifications to liquid media for supporting cultured tissues. To the Petri dish can be added a suitable culture medium lacking selection agents but containing 0.025% colchicine or other chromosome doubling agents such as Oryzalin, pronamide, or APM (amiprophos-methyl) as known to one of skill in the art (i.e., Wan et al., Theor. Appl. Genet., 81: 205-211, 1991). Enough medium and chromosome doubling agent is added to the Petri dish to keep the callus support moist, but not so much that it covers the callus. The callus is then incubated at 28° C. for 3 days in the dark.
After the co-cultivation, the callus pieces were transferred onto two pieces of 2cm^2×1 mm thick 100% acrylic felt with approximately 25 mL liquid MSW57 (Table 3) supplemented with 750 mg/L carbenicillin and 100 mg/L paromomycin in petri dishes (100 mm×25 mm) with 16 calli per plate. The plates were kept in a dark culture room at 28° C. for approximately 7-10 days after which the old medium was removed by aspiration and fresh selection medium was added to the plates. After two 10-day selection periods, the old medium was removed by aspiration and replaced with fresh MSW57 medium containing 0.025% colchicine. The tissues remained on the colchicine medium for 3 days after which the colchicine medium was removed by aspiration and replaced with fresh selection medium containing 750 mg/L carbenicillin and 100 mg/L paromomycin.
After an additional two 10-day selection periods on selection medium, the cultures were moved to a culture room with 16-h light/8-h dark photoperiod at 28° C. and the liquid medium was replaced with liquid MS-6BA medium (Table 3) with 100 mg/L paromomycin and 500 mg/L carbenicillin. After 7 days, the callus pieces were transferred onto the second regeneration medium, a hormone-free MS-based medium (MSOD, Table 3) with 100 mg/L paromomycin in petri dishes (100 mm×25 mm). In another 2 weeks, the callus pieces that had shoots regenerated or were still alive were transferred onto the same hormone-free medium in Phytatrays for further growth. Regenerated plants (R0) when they reached to the top of Phytatrays and had one or more healthy roots were moved to soil in peat pots in a growth chamber. In 7 to 10 days, they were transplanted into 12-in pots after determining by flow cytometry that they were doubled haploids. Using this procedure, 23 transgenic events were produced from a total of 528 pieces of callus exposed to Agrobacterium and selection on paromomycin (Table 6).

[2] = system: immature embryos and callus from inbred X KHI/pehA crosses; assay: Negative selection of pehA-containing immature embryos/callus on callus induction medium with glyceryl glyphosate; format: cell-based, corn; conditions: 10 to 14 days on callus induction medium; glyceryl glyphosate 0 to 5 mM
From the text: An efficient identification of corn haploid immature embryos, and callus derived from them, can be achieved by using the negative selectable marker gene pehA (phosphonate monoesterase). Cells that express the pehA gene convert the non-toxic glycerol glyphosate to toxic glyphosate and subsequently die. It is understood, however, that other negative selectable marker genes such as cytosine deaminase (which converts 5-fluorocytosine to 5-fluorouracil, which is toxic to cell growth [Plant Cell Reports 2001; 20:738-743]) may also be used equally effectively.
Inbred lines selected for the production of haploid immature embryos or callus can be pollinated with KHI that has been transformed with, and is homozygous for, the selectable marker gene pehA. After culturing on media containing glyceryl glyphosate, diploid (pehA containing) explants fail to grow, whereas maternal haploid explants produce callus typical of the maternal inbred.
Inbred lines selected for the production of haploid immature embryos or callus were pollinated with KHI that had been transformed with, and was homozygous for, the selectable marker gene pehA. The resulting ears were harvested when their embryos were 1.25 to 2.25 mm in size. Immature embryos were plated on suitable culture media to induce the desired type of callus. […]

`COc1cc2c(c(OC)c1OC)-c1ccc(OC)c(=O)cc1[C@@H](NC(C)=O)CC2` [colchicine] was tested, and the “doubling chromosomes of haploid callus” value ([1]; corn line D haploid callus, MSW57 medium with 0.025% colchicine) was “effective in doubling chromosomes”, the Diploid plants ([1]; haploid callus line S33-B2) was 67% and the Haploid plants ([1]; haploid callus line S33-B2) was 33%. For the same compound, the Diploid plants ([1]; haploid callus line S41-A1) was 50%, the Haploid plants ([1]; haploid callus line S41-A1) was 50% and the Diploid plants ([1]; haploid callus line S42-B4) was 33%. It also gave a Haploid plants ([1]; haploid callus line S42-B4) of 33%, a Tetraploid plants ([1]; haploid callus line S42-B4) of 33% and a Diploid plants ([1]; haploid callus line S43-B1) of 50%. For the same compound, the Haploid plants ([1]; haploid callus line S43-B1) was 17%, the Tetraploid plants ([1]; haploid callus line S43-B1) was 33% and the Diploid plants ([1]; haploid callus line S49-B1) was 100%. It also gave a Haploid plants ([1]; haploid callus line S55-B1) of 33% and a Tetraploid plants ([1]; haploid callus line S55-B1) of 67%.
With `O=C(O)CNCP(=O)(O)OCC(O)CO` (stereo not shown) [glyceryl glyphosate] the “growth of diploid (pehA containing) immature embryos” value [2] was “failed to grow” and the “growth of maternal haploid immature embryos” value [2] was “produced callus typical of maternal inbred”.

Reference: patent US20040210959A1, “A Novel Method for Production of Transformed Dihaploid Corn Plants” (MONSANTO TECHNOLOGY LLC, priority 2003, published 2004)
